Our source for the IC50 and Activity values is ChEMBL document CHEMBL4699608, “Aliphatic amines are viable pro-drug moieties in phosphonoamidate drugs” (Bioorg Med Chem Lett, 2020).

The source made the active and inactive calls. The rule behind the calls is not given here.

In one test the test system is D-423MG. Nature of the test: Cytotoxicity against human D423 cells with ENO1 deficient assessed as reduction in cell viability incubated for 5 days by crystal violet staining based spectrophotometry. The note with it: 120 h. The class given is functional.
For `CNP(=O)(OCOC(=O)C(C)(C)C)C1CCCN(O)C1=O` (configuration not stated), the concentration for half-maximal inhibition (IC50) was determined as 115 nM. Take `CC(C)(C)C(=O)OCOP(N)(=O)C1CCCN(O)C1=O` (configuration not stated): the IC50 was determined as 62.6 nM. Take `O=C1C(P(=O)(O)NCC2CC2)CCCN1O` (configuration not stated): the 50% inhibitory concentration (IC50) was 8830 nM.

As to `CCCCCCCCCCCCNP(=O)(O)C1CCCN(O)C1=O` (configuration not stated), the IC50 was found to be 24 nM. As for `CC(C)OC(=O)C(C)NP(=O)(OCOC(=O)C(C)(C)C)C1CCCN(O)C1=O` (configuration not stated), the 50% inhibitory concentration (IC50) worked out at 258 nM. On the same count and under the same terms, in the case of `CC(C)(C)C(=O)OCOP(=O)(NCc1ccc(F)c(F)c1)C1CCCN(O)C1=O` (configuration not stated) it was 84.6 nM; in that of `CC(C)(C)C(=O)OCOP(=O)(NCC1CCCCC1)C1CCCN(O)C1=O` (configuration not stated), 81.1 nM.

For the compound `CC(C)(C)C(=O)OCOP(=O)(NCc1ccccc1F)C1CCCN(O)C1=O` (configuration not stated), the half-inhibitory concentration (IC50) was 196 nM. On the same count and under the same terms, with `CC(C)(C)C(=O)OCOP(=O)(OCOC(=O)C(C)(C)C)C1CCCN(O)C1=O` (configuration not stated) the figure was 17.3 nM; with `CC(C)(C)C(=O)OCOP(=O)(NCc1ccc(F)cc1)C1CCCN(O)C1=O` (configuration not stated), 129 nM. Still for that read-out and setting: with `CC(C)(C)C(=O)OCOP(=O)(NC1CCC1)C1CCCN(O)C1=O` (configuration not stated) the figure was 121 nM. Same read-out and setting: with `CC(C)(C)C(=O)OCOP(=O)(NCc1ccc(F)cc1F)C1CCCN(O)C1=O` (configuration not stated) the figure was 80.3 nM; with `CC(C)(C)C(=O)OCOP(=O)(NCc1ccccc1)C1CCCN(O)C1=O` (configuration not stated), 244 nM.

Consider `CC(C)(C)C(=O)OCOP(=O)(NCc1cccc(F)c1)C1CCCN(O)C1=O` (configuration not stated), for which the IC50 was found to be 103 nM.

The test system of a further test is D-423MG. In words: Cytotoxicity against human D423 cells with HINT1 deficient. The class given is functional, cell-based.
Settings: not given
`CC(C)(C)C(=O)OCOP(=O)(NCC1CC1)C1CCCN(O)C1=O` (configuration not stated): the result was Active.

In a further test the test system is D-423MG. Nature of the test: Cytotoxicity against human D423 cells with PAPSS1 deficient. Type of test: functional, cell-based.
Settings: not given
For the compound `CC(C)(C)C(=O)OCOP(=O)(NCC1CC1)C1CCCN(O)C1=O` (configuration not stated), the result was Active.

The test system of a further test is D-423MG. Nature of the test: Cytotoxicity against human D423 cells with CES2 deficient.
Settings: not given
Type of test: functional, cell-based.
On to `CC(C)(C)C(=O)OCOP(=O)(NCC1CC1)C1CCCN(O)C1=O` (configuration not stated), for which the outcome was Active.
